From ChEMBL document CHEMBL2440076, “New triarylpyrazoles as broad-spectrum anticancer agents: design, synthesis, and biological evaluation” (Eur J Med Chem, 2013)

Legend:
Assay type in all cases: functional
[1] = system: NCI-H460; assay: Growth inhibition of human NCI-H460 cells assessed as cell growth at 5X10'-9 M after 48 hrs by sulforhodamine B assay; details: NCI-H460, 48 h, read-out: Activity
[2] = system: HT-29; assay: Growth inhibition of human HT-29 cells assessed as cell growth at 5X10'-5 M after 48 hrs by sulforhodamine B assay; details: HT-29, 48 h, read-out: Activity
[3] = system: SNB-19; assay: Growth inhibition of human SNB19 cells assessed as cell growth at 5X10'-8 M after 48 hrs by sulforhodamine B assay; details: SNB-19, 48 h, read-out: Activity
[4] = system: HCT-15; assay: Growth inhibition of human HCT15 cells assessed as cell growth at 5X10'-5 M after 48 hrs by sulforhodamine B assay; details: HCT-15, 48 h, read-out: Activity
[5] = system: MDA-MB-468; assay: Growth inhibition of human MDA-MB-468 cells assessed as cell growth at 5X10'-9 M after 48 hrs by sulforhodamine B assay; details: MDA-MB-468, 48 h, read-out: Activity
[6] = system: SN12C; assay: Growth inhibition of human SN12C cells assessed as cell growth at 5X10'-9 M after 48 hrs by sulforhodamine B assay; details: read-out: Activity
[7] = system: RPMI-8226; assay: Growth inhibition of human RPMI8226 cells assessed as cell growth at 5X10'-7 M after 48 hrs by sulforhodamine B assay; details: RPMI-8226, 48 h, read-out: Activity
[8] = system: HOP-92; assay: Growth inhibition of human HOP92 cells assessed as cell growth at 5X10'-9 M after 48 hrs by sulforhodamine B assay; details: HOP-92, 48 h, read-out: Activity
[9] = system: LOX IMVI; assay: Growth inhibition of human LOXIMVI cells assessed as cell growth at 5X10'-5 M after 48 hrs by sulforhodamine B assay; details: read-out: Activity
[10] = system: OVCAR-3; assay: Growth inhibition of human OVCAR3 cells assessed as cell growth at 5X10'-6 M after 48 hrs by sulforhodamine B assay; details: OVCAR-3, 48 h, read-out: Activity
[11] = system: HCT-116; assay: Growth inhibition of human HCT116 cells assessed as cell growth at 5X10'-6 M after 48 hrs by sulforhodamine B assay; details: HCT-116, 48 h, read-out: Activity
[12] = system: HOP-92; assay: Growth inhibition of human HOP92 cells assessed as cell growth at 5X10'-5 M after 48 hrs by sulforhodamine B assay; details: HOP-92, 48 h, read-out: Activity
[13] = system: SF-268; assay: Growth inhibition of human SF268 cells assessed as cell growth at 5X10'-8 M after 48 hrs by sulforhodamine B assay; details: SF-268, 48 h, read-out: Activity
[14] = system: OVCAR-5; assay: Growth inhibition of human OVCAR5 cells assessed as cell growth at 5X10'-6 M after 48 hrs by sulforhodamine B assay; details: OVCAR-5, 48 h, read-out: Activity
[15] = system: HOP-62; assay: Growth inhibition of human HOP62 cells assessed as cell growth at 5X10'-8 M after 48 hrs by sulforhodamine B assay; details: HOP-62, 48 h, read-out: Activity
[16] = system: IGROV-1; assay: Growth inhibition of human IGROV1 cells assessed as cell growth at 5X10'-9 M after 48 hrs by sulforhodamine B assay; details: IGROV-1, 48 h, read-out: Activity
[17] = system: ACHN; assay: Growth inhibition of human ACHN cells assessed as cell growth at 5X10'-6 M after 48 hrs by sulforhodamine B assay; details: read-out: Activity
[18] = system: RPMI-8226; assay: Growth inhibition of human RPMI8226 cells assessed as cell growth at 5X10'-5 M after 48 hrs by sulforhodamine B assay; details: RPMI-8226, 48 h, read-out: Activity
[19] = system: Malme-3M; assay: Growth inhibition of human MALME-3M cells assessed as cell growth at 5X10'-9 M after 48 hrs by sulforhodamine B assay; details: read-out: Activity
[20] = system: SK-MEL-5; assay: Growth inhibition of human SK-MEL-5 cells assessed as cell growth at 5X10'-8 M after 48 hrs by sulforhodamine B assay; details: SK-MEL-5, 48 h, read-out: Activity
[21] = system: CAKI-1; assay: Growth inhibition of human CAKI-1 cells assessed as cell growth at 5X10'-5 M after 48 hrs by sulforhodamine B assay; details: CAKI-1, 48 h, read-out: Activity
[22] = system: NCI-H322M; assay: Growth inhibition of human NCI-H322M cells assessed as cell growth at 5X10'-5 M after 48 hrs by sulforhodamine B assay; details: read-out: Activity
[23] = Growth inhibition of human HCC2998 cells assessed as cell growth at 5X10'-9 M after 48 hrs by sulforhodamine B assay; details: HCC 2998, 48 h, read-out: Activity
[24] = system: 786-0; assay: Growth inhibition of human 786-0 cells assessed as cell growth at 5X10'-5 M after 48 hrs by sulforhodamine B assay; details: 786-0, 48 h, read-out: Activity
[25] = system: T47D; assay: Growth inhibition of human T47D cells assessed as cell growth at 5X10'-5 M after 48 hrs by sulforhodamine B assay; details: read-out: Activity
[26] = system: NCI-H322M; assay: Growth inhibition of human NCI-H322M cells assessed as cell growth at 5X10'-7 M after 48 hrs by sulforhodamine B assay; details: read-out: Activity
[27] = system: DU-145; assay: Growth inhibition of human DU145 cells assessed as cell growth at 5X10'-7 M after 48 hrs by sulforhodamine B assay; details: DU-145, 48 h, read-out: Activity
[28] = system: SK-MEL-28; assay: Growth inhibition of human SK-MEL-28 cells assessed as cell growth at 5X10'-9 M after 48 hrs by sulforhodamine B assay; details: SK-MEL-28, 48 h, read-out: Activity
[29] = system: SN12C; assay: Growth inhibition of human SN12C cells assessed as cell growth at 5X10'-8 M after 48 hrs by sulforhodamine B assay; details: read-out: Activity
[30] = system: OVCAR-8; assay: Growth inhibition of human OVCAR8 cells assessed as cell growth at 5X10'-9 M after 48 hrs by sulforhodamine B assay; details: OVCAR-8, 48 h, read-out: Activity
[31] = system: UO-31; assay: Growth inhibition of human UO31 cells assessed as cell growth at 5X10'-8 M after 48 hrs by sulforhodamine B assay; details: UO-31, 48 h, read-out: Activity
[32] = system: SF-268; assay: Growth inhibition of human SF268 cells assessed as cell growth at 5X10'-6 M after 48 hrs by sulforhodamine B assay; details: SF-268, 48 h, read-out: Activity
[33] = system: TK-10; assay: Growth inhibition of human TK10 cells assessed as cell growth at 5X10'-6 M after 48 hrs by sulforhodamine B assay; details: TK-10, 48 h, read-out: Activity
[34] = system: UACC-257; assay: Growth inhibition of human UACC257 cells assessed as cell growth at 5X10'-8 M after 48 hrs by sulforhodamine B assay; details: UACC-257, 48 h, read-out: Activity
[35] = system: LOX IMVI; assay: Growth inhibition of human LOXIMVI cells assessed as cell growth at 5X10'-8 M after 48 hrs by sulforhodamine B assay; details: read-out: Activity
[36] = system: SF-295; assay: Growth inhibition of human SF295 cells assessed as cell growth at 5X10'-8 M after 48 hrs by sulforhodamine B assay; details: SF-295, 48 h, read-out: Activity

Compound | growth at 0.005 µM [1] | growth at 50 µM [2] | growth at 0.05 µM [3] | growth at 50 µM [4] | growth at 0.005 µM [5] | growth at 0.005 µM [6] | growth at 0.5 µM [7] | growth at 0.005 µM [8] | growth at 50 µM [9] | growth at 5 µM [10] | growth at 5 µM [11] | growth at 50 µM [12] | growth at 0.05 µM [13] | growth at 5 µM [14] | growth at 0.05 µM [15] | growth at 0.005 µM [16] | growth at 5 µM [17] | growth at 50 µM [18] | growth at 0.005 µM [19] | growth at 0.05 µM [20] | other results
COc1cc(-c2nn(-c3cccc(NC(=O)c4cccc(C(F)(F)F)c4)c3)cc2-c2ccncc2)ccc1Cl | 100% | -4% | 96% | 8% | 94% | 97% | 88% | 90% | 5% | -28% | 12% | -22% | 93% | 46% | 97% | 102% | 27% | -4% | 95% | 97% | growth at 50 µM [21]: 17%; growth at 50 µM [22]: 46%; growth at 0.005 µM [23]: 92%; growth at 50 µM [24]: 3%; growth at 50 µM [25]: 21%; growth at 0.5 µM [26]: 87%; growth at 0.5 µM [27]: 92%; growth at 0.005 µM [28]: 103%; growth at 0.05 µM [29]: 99%; growth at 0.005 µM [30]: 97%; growth at 0.05 µM [31]: 75%; growth at 5 µM [32]: 28%; growth at 5 µM [33]: 36%; growth at 0.05 µM [34]: 99%; growth at 0.05 µM [35]: 91%; growth at 0.05 µM [36]: 95%
COc1cc(-c2nn(-c3cccc(NC(=O)Nc4cccc(C(F)(F)F)c4)c3)cc2-c2ccncc2)ccc1Cl | 100% | -79% | 97% | -29% | 93% | 97% | 40% | 93% | -86% | -42% | 3% | -45% | 93% | 5% | 95% | 100% | -8% | -8% | 86% | 95% | growth at 50 µM [21]: -21%; growth at 50 µM [22]: -14%; growth at 0.005 µM [23]: 100%; growth at 50 µM [24]: -22%; growth at 50 µM [25]: 1%; growth at 0.5 µM [26]: 82%; growth at 0.5 µM [27]: 90%; growth at 0.005 µM [28]: 100%; growth at 0.05 µM [29]: 97%; growth at 0.005 µM [30]: 99%; growth at 0.05 µM [31]: 79%; growth at 5 µM [32]: 1%; growth at 5 µM [33]: 10%; growth at 0.05 µM [34]: 98%; growth at 0.05 µM [35]: 95%; growth at 0.05 µM [36]: 91%
O=C(Nc1cccc(-n2cc(-c3ccncc3)c(-c3ccc(Cl)c(O)c3)n2)c1)c1ccc(N2CCOCC2)c(C(F)(F)F)c1 | 103% | 16% | 104% | -7% | 95% | 98% | 83% | 85% | -53% | 49% | 35% | -15% | 93% | 111% | 101% | 103% | 25% | -14% | 88% | 93% | growth at 50 µM [21]: -15%; growth at 50 µM [22]: 56%; growth at 0.005 µM [23]: 95%; growth at 50 µM [24]: -53%; growth at 50 µM [25]: 44%; growth at 0.5 µM [26]: 114%; growth at 0.5 µM [27]: 96%; growth at 0.005 µM [28]: 104%; growth at 0.05 µM [29]: 98%; growth at 0.005 µM [30]: 101%; growth at 0.05 µM [31]: 88%; growth at 5 µM [32]: 51%; growth at 5 µM [33]: 94%; growth at 0.05 µM [34]: 104%; growth at 0.05 µM [35]: 96%; growth at 0.05 µM [36]: 98%
